The target in the experiment is hDPP-IV (Homo sapiens, UniProt P27487). Put plainly: DPP-IV inhibitory assay. The format is biochemical.

The values below come from paper PMC10601436 (ACS Omega, 2023).

Peptide text beside a SMILES is read from it.

Sequence of hDPP-IV (P27487 whole entry): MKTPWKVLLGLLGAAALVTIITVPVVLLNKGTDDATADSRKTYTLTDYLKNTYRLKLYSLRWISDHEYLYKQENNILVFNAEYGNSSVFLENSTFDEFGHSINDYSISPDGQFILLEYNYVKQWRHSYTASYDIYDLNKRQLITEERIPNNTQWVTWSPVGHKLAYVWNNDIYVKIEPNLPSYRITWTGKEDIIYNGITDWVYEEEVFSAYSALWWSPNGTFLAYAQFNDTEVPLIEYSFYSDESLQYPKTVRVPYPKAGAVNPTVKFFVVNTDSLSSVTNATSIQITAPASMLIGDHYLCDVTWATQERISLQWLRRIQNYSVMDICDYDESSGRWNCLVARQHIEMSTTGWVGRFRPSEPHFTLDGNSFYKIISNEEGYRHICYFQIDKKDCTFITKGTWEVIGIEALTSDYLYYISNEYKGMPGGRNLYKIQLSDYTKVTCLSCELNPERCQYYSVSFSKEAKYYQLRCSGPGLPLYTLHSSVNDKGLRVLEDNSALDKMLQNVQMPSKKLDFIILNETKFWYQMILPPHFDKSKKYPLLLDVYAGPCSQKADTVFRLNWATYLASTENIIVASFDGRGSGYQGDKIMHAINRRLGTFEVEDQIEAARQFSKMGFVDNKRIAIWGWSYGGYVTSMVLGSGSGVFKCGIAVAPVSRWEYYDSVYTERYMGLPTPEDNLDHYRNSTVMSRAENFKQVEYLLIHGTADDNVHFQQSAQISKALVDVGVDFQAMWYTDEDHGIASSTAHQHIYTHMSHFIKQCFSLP

The IC50 is the concentration that inhibits the measured activity by half. A higher IC50 goes with weaker potency. The compound `N[C@@H](Cc1c[nH]c2ccccc12)C(=O)N1CCC[C@H]1C(=O)N[C@@H](CC(=O)O)C(=O)O` [WPD] (H-Trp-Pro-Asp-OH) showed an IC50 of 481 µM.

Compound `N[C@@H](Cc1c[nH]c2ccccc12)C(=O)N1CCC[C@H]1C(=O)N[C@@H](CO)C(=O)O` [WPS] (H-Trp-Pro-Ser-OH) had an IC50 of 588 µM.

Compound `N=C(N)NCCC[C@H](NC(=O)[C@@H](N)Cc1c[nH]c2ccccc12)C(=O)N[C@@H](CS)C(=O)O` [WRC] (H-Trp-Arg-Cys-OH) had an IC50 of 210 µM.

`C[C@@H](O)[C@H](NC(=O)[C@@H]1CCCN1C(=O)[C@@H](N)Cc1c[nH]c2ccccc12)C(=O)O` [WPT] (H-Trp-Pro-Thr-OH) had an IC50 of 435 µM.

Turning to `CC(C)[C@H](NC(=O)[C@@H](N)Cc1c[nH]c2ccccc12)C(=O)N[C@@H](Cc1ccccc1)C(=O)O` [WVF] (H-Trp-Val-Phe-OH), the IC50 amounted to 188 µM.

In the case of `CC(C)[C@H](NC(=O)[C@@H](N)Cc1c[nH]c2ccccc12)C(=O)N[C@@H](CC(=O)O)C(=O)O` [WVD] (H-Trp-Val-Asp-OH), it took 343 µM to reach half-maximal inhibition (IC50).

For the compound `CC(C)[C@H](NC(=O)[C@@H](N)Cc1c[nH]c2ccccc12)C(=O)N1CCC[C@H]1C(=O)O` [WVP] (H-Trp-Val-Pro-OH), half-maximal inhibition (IC50) required 402 µM.

Consider `CC(C)[C@H](N)C(=O)N1CCC[C@H]1C(=O)N[C@H](C(=O)N1CCC[C@H]1C(=O)N[C@@H](CS)C(=O)O)C(C)C` [VPVPC] (H-VPVPC-OH), for which the IC50 amounted to 54.8 µM.

In the case of `C[C@H](NC(=O)[C@@H](N)Cc1c[nH]c2ccccc12)C(=O)N[C@@H](CCC(N)=O)C(=O)O` [WAQ] (H-Trp-Ala-Gln-OH), half-maximal inhibition (IC50) required 289 µM.

`CC[C@H](C)[C@H](N)C(=O)N1CCC[C@H]1C(=O)N[C@H](C(=O)N1CCC[C@H]1C(=O)N[C@H](C(=O)O)[C@@H](C)CC)[C@@H](C)CC` [IPIPI] (H-IPIPI-OH) gave a half-inhibitory concentration (IC50) of 47.5 µM.

`N=C(N)NCCC[C@H](NC(=O)[C@@H]1CCCN1C(=O)[C@@H](N)Cc1c[nH]c2ccccc12)C(=O)O` [WPR] (H-Trp-Pro-Arg-OH): inhibition was half-maximal at 209 µM (IC50).

`CC(C)[C@H](NC(=O)[C@@H](N)Cc1c[nH]c2ccccc12)C(=O)N[C@@H](Cc1c[nH]c2ccccc12)C(=O)O` [WVW] (H-Trp-Val-Trp-OH) came in with an IC50 of 239 µM.

Consider `N[C@@H](Cc1c[nH]c2ccccc12)C(=O)N1CCC[C@H]1C(=O)N[C@@H](Cc1ccccc1)C(=O)O` [WPF] (H-Trp-Pro-Phe-OH), for which the IC50 was 286 µM.

As for `CSCC[C@H](NC(=O)[C@H](CCCNC(=N)N)NC(=O)[C@@H](N)Cc1c[nH]c2ccccc12)C(=O)O` [WRM] (H-Trp-Arg-Met-OH), the IC50 was found to be 897 µM.

Regarding `CC(C)[C@H](NC(=O)[C@@H](N)Cc1c[nH]c2ccccc12)C(=O)N[C@@H](C)C(=O)O` [WVA] (H-Trp-Val-Ala-OH), it took 341 µM to reach half-maximal inhibition (IC50).

Take `C[C@H](NC(=O)[C@@H](N)Cc1c[nH]c2ccccc12)C(=O)N[C@@H](Cc1c[nH]c2ccccc12)C(=O)O` [WAW] (H-Trp-Ala-Trp-OH): the IC50 was determined as 104 µM.

The compound `CC(C)[C@H](NC(=O)[C@@H](N)Cc1c[nH]c2ccccc12)C(=O)N[C@@H](CS)C(=O)O` [WVC] (H-Trp-Val-Cys-OH) registered an IC50 of 232 µM.

In turn, `C[C@H](NC(=O)[C@H](CCCNC(=N)N)NC(=O)[C@@H](N)Cc1c[nH]c2ccccc12)C(=O)O` [WRA] (H-Trp-Arg-Ala-OH) came in with an IC50 of 535 µM.

The compound `NC(=O)C[C@H](NC(=O)[C@@H]1CCCN1C(=O)[C@@H](N)Cc1c[nH]c2ccccc12)C(=O)O` [WPN] (H-Trp-Pro-Asn-OH) registered an IC50 of 129 µM.

For the compound `C[C@@H](O)[C@H](NC(=O)[C@H](CCCNC(=N)N)NC(=O)[C@@H](N)Cc1c[nH]c2ccccc12)C(=O)O` [WRT] (H-Trp-Arg-Thr-OH), the IC50 is 556 µM.

Take `CC(C)C[C@H](NC(=O)[C@@H](NC(=O)[C@@H](N)Cc1c[nH]c2ccccc12)C(C)C)C(=O)O` [WVL] (H-Trp-Val-Leu-OH): the midpoint of inhibition, the IC50, lay at 399 µM.

Consider `N=C(N)NCCC[C@H](NC(=O)[C@@H](N)Cc1c[nH]c2ccccc12)C(=O)N[C@@H](Cc1c[nH]c2ccccc12)C(=O)O` [WRW] (H-Trp-Arg-Trp-OH), for which the IC50 worked out at 603 µM.

`C[C@H](NC(=O)[C@@H](N)Cc1c[nH]c2ccccc12)C(=O)N[C@@H](Cc1c[nH]cn1)C(=O)O` [WAH] (H-Trp-Ala-His-OH) gave an IC50 of 190 µM.

For `CC(C)[C@H](NC(=O)[C@@H](N)Cc1c[nH]c2ccccc12)C(=O)N[C@H](C(=O)O)[C@@H](C)O` [WVT] (H-Trp-Val-Thr-OH), half-maximal inhibition (IC50) required 336 µM.

Turning to `C[C@H](NC(=O)[C@@H](N)Cc1c[nH]c2ccccc12)C(=O)N[C@@H](CS)C(=O)O` [WAC] (H-Trp-Ala-Cys-OH), the IC50 turned out to be 283 µM.

For the compound `C[C@H](NC(=O)[C@@H](N)Cc1c[nH]c2ccccc12)C(=O)N[C@@H](Cc1ccccc1)C(=O)O` [WAF] (H-Trp-Ala-Phe-OH), the IC50 was determined as 153 µM.

As to `CC(C)[C@H](NC(=O)[C@@H](N)Cc1c[nH]c2ccccc12)C(=O)N[C@@H](CCCCN)C(=O)O` [WVK] (H-Trp-Val-Lys-OH), the IC50 came out at 331 µM.

`CC(C)[C@H](NC(=O)[C@@H](N)Cc1c[nH]c2ccccc12)C(=O)N[C@@H](CCC(=O)O)C(=O)O` [WVE] (H-Trp-Val-Glu-OH) registered an IC50 of 193 µM.

As for `N=C(N)NCCC[C@H](NC(=O)[C@@H](N)Cc1c[nH]c2ccccc12)C(=O)N[C@@H](Cc1c[nH]cn1)C(=O)O` [WRH] (H-Trp-Arg-His-OH), the IC50 came to 277 µM.

As for `N[C@@H](Cc1c[nH]c2ccccc12)C(=O)N1CCC[C@H]1C(=O)N[C@@H](Cc1c[nH]cn1)C(=O)O` [WPH] (H-Trp-Pro-His-OH), the concentration for half-maximal inhibition (IC50) was found to be 315 µM.

The compound `CC(C)[C@H](NC(=O)[C@@H](N)Cc1c[nH]c2ccccc12)C(=O)N[C@@H](Cc1c[nH]cn1)C(=O)O` [WVH] (H-Trp-Val-His-OH) registered an IC50 of 257 µM.

As to `CC(C)[C@H](NC(=O)[C@@H](N)Cc1c[nH]c2ccccc12)C(=O)NCC(=O)O` [WVG] (H-Trp-Val-Gly-OH), half-maximal inhibition (IC50) was put at 341 µM.

`N=C(N)NCCC[C@H](NC(=O)[C@@H](N)Cc1c[nH]c2ccccc12)C(=O)N[C@@H](CCC(N)=O)C(=O)O` [WRQ] (H-Trp-Arg-Gln-OH) had an IC50 of 286 µM.
